Data as given in US7923230B2, “Neurodegenerative protein aggregation inhibition methods and compounds” (The Board of Trustees of the Leland Stanford Junior …, priority 2003, dated 2011).

Columns and labels:
[1] = target: T1, FKBP12 (Homo sapiens, UniProt P62942); experiment: Surface plasmon resonance, binding to immobilized FKBP12; conditions: SPR
T1 construct: made in house
Protocol: (§1) Surface Plasmon Resonance. Amide coupling was used to generate a carboxymethyldextran (CMS; BIAcore, Uppsala, Sweden) sensor chip bearing a mockimmobilized surface on flow chamber 1 (Fc1), 950 RU of Aβ(1-40) (SEQ ID NO: 3) (AnaSpec, San Jose, Calif.) on Fc2, and 2800 RU of bacterially-expressed recombinant FKBP12 on Fc3. The regeneration conditions were as follows: for removing analyte from Aβ surfaces (4 M guanidine HCl, 10 mM Tris buffer pH 8.0) and for removing analyte from the FKBP surface (750 mM NaCl, 250 mM NaOH). To calculate KD1 and KD2 (±SEM) for Aβ binding (in part C), the control signal was subtracted and data was fit according to the method of Cairo et al. (Biochemistry 41, 8620-8629 (2002). In each case, eight concentrations of analyte distributed around the KD were injected in duplicate in the running buffer (HBS-EP; BIAcore). Congo red is not uniquely specific for Aβ and, consistent with this, it also binds FKBP, but at a KD 20-fold higher than SLF-CR.

[2] = target: T2, Aβ(1-42) (Homo sapiens, UniProt P05067); experiment: Light scattering (turbidity) of Aβ(1-42) fibrillogenesis; assay type: biochemical
T2 construct: purchased AnaSpec, San Jose, Calif; host or cells: synthetic peptide
Protocol: Light Scattering. Fresh A13(1-42) (Anaspec, San Jose, Calif.) (SEQ ID NO: 2) was prepared by resuspending the peptide in […] pH 9.5 to 10, sonicating for 5 minutes, and passing the resulting solutions through a 10 kDa filter (YM-10; Millipore, Bedford, Mass.) (31). Stock solutions (100 μM in 2 mM NaOH) were stored at −80° C. and diluted to 25 uM with PBS pH 7.2 to initiate fibrillogenesis. Identical methods were used to prepare the Aβ(1-42) (SEQ ID NO: 2) solutions utilized for TEM, AFM, MTT, Tunel and thioflavin T experiments. Turbidity was measured at 30° C. with orbital shaking in half area, nonbinding surface 96-well plates (Corning) on a TECAN GENios plate reader. The total volume was 50 uL and the concentration of FKBP was 1 uM. The results are representative of two independent experiments each performed in triplicate.

[3] = target: T2, Aβ(1-42); experiment: Thioflavin T fluorescence assay of Aβ aggregation; assay type: biochemical; conditions: highest drug concentrations
Protocol: Fibrillization Procedure. Purified amyloid beta (1-42) (SEQ ID NO: 2) was purchased from AnaSpec and used without further purification. Fibrillization conditions are based on those previously described by Gordon and Meredith (Gordon, D. J. and Meredith, S. C. (2003) Biochemistry 42:475-485). Briefly, peptide was dissolved in PBS to a final concentration of 100 uM. To this solution, was added either FKBP12 (to a final concentration of 1 uM) or an equivalent volume of buffer alone (100 mM NaCl, 10 mM Tris-HCl pH 7.0). Additionally, either agent (dissolved in DMF) or DMF alone was added. These mixtures were placed at room temperature for at least 4 days without disruption. Thioflavin T assay. […] The mixture was vortexed briefly and the fluorescence emission maximum measured. For the dose dependence experiment, the emission wavelength was recorded at 490 nm. […] Turbidity was measured at 30° C. with orbital shaking in half area, nonbinding surface 96-well plates (Corning) on a TECAN GENios plate reader. […] Fluorescence was measured on a SpectraMax Gemini (Molecular Devices, Sunnyvale, Calif.), using an excitation wavelength of 446 nm (±5 nm) and an emission of 490 nm (±5 nm). The data was fit to sigmoidal curves using DeltaGraph (DeltaPoint, Inc) and the IC50 for each treatment recorded. […] A linear relationship between thioflavin T fluorescence and percent aggregation was used for simplicity.

[4] = target: T2, Aβ(1-42); experiment: Transmission electron microscopy of Aβ fibrils; assay type: biochemical; conditions: for size or abundance of Aβ fibrils (TEM): 1 uM drug, 1 μM FKBP where present
Protocol: Transmission Electron Microscopy (TEM). Electron microscopy was performed essentially as previously described (Gordon, D. J. and Meredith, S. C. (2003) Biochemistry 42:475-485). Briefly, solutions subjected to the fibrillization conditions described above were applied to Formvar coated 400-mesh glow-discharged copper grids and contrasted with 1% uranyl acetate solution. Grids were analyzed at 80 kV and a magnification of 100,000×. Transmission Electron Microscopy. TEM was conducted using 300 mesh formvar-coated copper grids and 1% uranyl acetate stain on a JEOL TEM1230 and imaged with a Gatan 967 slow-scan CCD at 80 kV. Samples were incubated for 4 days at 22° C. in PBS pH 7.2 containing 25 uM Aβ(1-42) (SEQ ID NO: 2), 1 μM FKBP and 1 uM drug, where appropriate. The protocol used to prepare Aβ can influence fibrillogenesis and the reproducibility of the assays. Therefore, it can be useful to examine Aβ aggregation under a variety of conditions. In addition to the hydroxide method used above, stock solutions of Aβ were also prepared using a trifluoroacetic acid (TFA) protocol (Crystal, et al., J. Neurochem. 86, 1359-1368 (2003). TEM on samples originated from these stock solutions yielded similar results, although the typical size of the fibrils was considerably shorter.

[5] = tested on: Rat hippocampal neurons; experiment: MTT cell viability assay, neurons exposed to pre-treated Aβ(1-42); assay type: cell-based; conditions: high molar concentrations of Aβ; SLF-Benz-CR at 100 nM
Protocol: Cell Viability Assay. Rat hippocampal (E19.5 and P0) neurons were prepared as previously described (Graef, et al., Nature 401, 703-708 (1999). Fresh Aβ(1-42) (100 uM) (SEQ ID NO: 2) was prepared under basic conditions and incubated with inhibitors for two days at 22° C. in PBS pH 7.2 and then diluted 1:4 with culture media and applied to neurons. MTT assays were conducted as per manufacturer's specifications after two additional days of incubation at 37° C. and 5% CO2. The inhibitor concentrations are the in vitro incubation values.

[6] = tested on: Rat hippocampal neurons; experiment: Tunel staining / immunofluorescence microscopy of neurons exposed to Aβ; assay type: cell-based; conditions: for Tunel positive cells / Aβ toxicity: Aβ 25 uM, drug and FKBP 1 uM, incubated with Aβ prior to addition
Protocol: Immunofluorescence Microscopy. Rat hippocampal neurons (P0) were cultured 10 days on Matrigel-coated glass coverslips (Deckgläser, Germany) in 24-well plates (Corning) at 37° C. and 5% CO2. Aβ solutions were prepared and applied as above. The final concentration of Aβ was 25 uM and drug and FKBP were present at 1 uM. Following a two-day incubation, cells were prepared for microscopy as described (R. Kayed, et al., Science 300, 486-489 (2003).

[7] = target: T3, Aβ(1-40) (Homo sapiens, UniProt P05067); experiment: Surface plasmon resonance, binding to immobilized Aβ(1-40)
T3 construct: purchased AnaSpec, San Jose, Calif; host or cells: synthetic peptide
Protocol: as §1

[8] = tested on: Aβ(1-42); experiment: Atomic force microscopy of Aβ aggregates; assay type: biochemical; conditions: samples containing Aβ(1-42) and FKBP
Protocol: Atomic Force Microscopy. Samples for AFM were prepared as for TEM, above, applied to a clean silicon surface, washed twice with dH2O, dried, and imaged at a scan rate of 1 Hz using a silicon probe (TESP) on an AFM Nanoscope Dimension 3000 (Digital Instruments) in Tapping Mode (C. Goldsbury, et al, J. Mol. Biol. 285, 33-39 (1999). The dimensions of the globular aggregates in the samples treated with SLF-CR/FKBP were approximated using NIH Image.

T2 sequence (P05067 672-713): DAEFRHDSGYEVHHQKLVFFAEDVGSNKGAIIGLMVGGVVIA
T1 sequence (P62942 whole entry): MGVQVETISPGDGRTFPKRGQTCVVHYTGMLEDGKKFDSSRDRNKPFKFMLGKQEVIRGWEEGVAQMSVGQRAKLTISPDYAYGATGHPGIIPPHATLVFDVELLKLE
T3 sequence (P05067 672-711): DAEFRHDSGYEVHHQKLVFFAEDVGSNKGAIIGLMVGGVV

Molecule | binding to immobilized FKBP [1] | effect on Aβ aggregation / turbidity [2] | size or abundance of Aβ fibrils (TEM) [4] | Tunel positive cells / Aβ toxicity [6] | other results
CCC(C)(C)C(=O)C(=O)N1CCCC[C@H]1C(=O)O[C@H](CCc1ccc(OC)c(OC)c1)c1cccc(OCC(=O)O)c1 [SLF] | comparable affinity |  |  |  | 
Nc1c(/N=N/c2ccc(-c3ccc(/N=N/c4cc(S(=O)(=O)O)c5ccccc5c4N)cc3)cc2)cc(S(=O)(=O)O)c2ccccc12 [CR, Congo red, reference compound] |  | modest inhibitor of turbidity | ineffective | failed to substantially reduce the number of Tunel positive cells | KD for FKBP, fold higher than SLF-CR [1]: 20 fold; thioflavin T fluorescence [3]: failed to fully block thioflavin T fluorescence; rescue of neurons [5]: unable to rescue
FKBP: bacterially-expressed recombinant FKBP12, FK506-binding protein, prolyl isomerase |  | did not interfere with Aβ aggregation | does not influence the formation or architecture of Aβ fibrils | failed to substantially reduce the number of Tunel positive cells | 
CCC(C)(C)C(=O)C(=O)N1CCCCC1C(=O)OC(CCc1ccc(OC)c(OC)c1)c1cccc(OCC(=O)Nc2c(N=Nc3ccc(-c4ccc(N=Nc5cc(S(=O)(=O)O)c6ccccc6c5N)cc4)cc3)cc(S(=O)(=O)O)c3ccccc23)c1 (stereo not drawn) [SLF-CR] | comparable affinity |  | ineffective | failed to substantially reduce the number of Tunel positive cells | affinity for Aβ ([7]; immobilized Aβ(1-40), SPR): not significantly different from that of CR; SPR response on immobilized amyloid ([7]; ternary complex test, compound alone or pre-incubated with FKBP): ~140 RUs; recruitment of FKBP to Aβ by electron microscopy [4]: confirmed; fibril formation (AFM) [8]: failed to form fibrils
CC[C@@]1(O)C(=O)OCc2c1cc1n(c2=O)Cc2cc3ccccc3nc2-1 [camptothecin, reference compound] |  |  |  |  | remaining cells positive for Tunel ([6]; after two days): 36%
